“And” between values parts separate entries of the source, which are not always exact repeats. Identical values can stand only once. “Also recorded” adds a separate entry of the source. Like-named read-outs stand apart in the source and are kept apart here.
Tests used:
NALM 6 cells [1] = assay: Migration (chemotaxis) of NALM 6 pre-B ALL cells; type: cell-based, human; details: for Number of cells at 40 μm from origin: cells preincubated with mAb (MET-ENK line: buffer, alone); for cell counts, migration to MET-ENK without naloxone: spontaneous 1647
PBMC = details: cited from earlier work
EBI1 = target: T1, EBI1 (Homo sapiens, UniProt P32248)
T1 sequence (P32248 25-378): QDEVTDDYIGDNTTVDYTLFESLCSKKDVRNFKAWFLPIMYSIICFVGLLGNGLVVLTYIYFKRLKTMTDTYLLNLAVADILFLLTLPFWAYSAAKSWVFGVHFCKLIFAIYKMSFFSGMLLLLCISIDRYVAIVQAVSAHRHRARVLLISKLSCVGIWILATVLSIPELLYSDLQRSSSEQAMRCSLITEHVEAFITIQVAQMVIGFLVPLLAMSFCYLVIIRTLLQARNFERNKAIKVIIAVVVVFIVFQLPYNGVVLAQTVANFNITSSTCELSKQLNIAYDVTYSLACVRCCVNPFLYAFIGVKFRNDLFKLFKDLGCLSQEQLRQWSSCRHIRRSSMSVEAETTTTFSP

NALM 6 cells [2] = assay: [Ca^2+ ]i response of NALM 6 / leukemia cells (Indo-1, flow cytometry); type: cell-based, human
Procedure: FIG. 15, Panels A-C. […] Cells were labeled with Indo-1 as previously described (Rabinovitch et al., 1986), washed twice in serum-free medium and held at 4° C. until flow cytometric analysis. The violet/blue fluorescence ratio was measured using previously described methods (Rabinovitch et al., 1986). Nonstimulated cells (measured in medium, alone) were used to establish a relative violet/blue ratio arbitrarily set at 1.0 as previously described (Rabinovitch). Calibration of [Ca^2+ ]i was carried out as previously described by Rabinovitch et al (1986) using the formula: [formula]
Rmax values were determined by measuring the maximum shift in indo violet/blue fluorescence for cells treated with 4 μM ionomycin. Rmin was measured as the minimum ratio for the violet blue fluorescence of ionomycin treated cells following the addition of 8 mM EGTA. […] The Kd (effective dissociation constant) was set at 250 nM.

human T cells = assay: Migration of human peripheral blood T cells; type: cell-based
Jurkat cells = assay: MET-ENK-FITC binding to Jurkat cells (flow cytometry, Scatchard); parameters: species or system human
NALM 6 cells [3] = assay: MET-ENK-FITC binding to NALM 6 cells (flow cytometry, Scatchard); parameters: species or system human; details: NALM 6
NALM 6 cells [4] = assay: cAMP accumulation in NALM 6 cells; type: cell-based, human; details: forskolin-activated NALM 6
Procedure: FIG. 16. […] NALM 6 cells (2×10^6 /ml) were stimulated with forskolin or forskolin+MET-ENK at the concentrations indicated and in the presence of 1 mM isobutyl-1-methylxanthine. Cyclic AMP was assayed after 15 minutes at 37° C. Data are expressed as fmoles of cAMP/minute. Samples were processed as previously described Cobb, Heagy, Dunner et al., 1980; cAMP was measured using a commercial RIA kit.

murine splenocytes = details: cited from earlier work
LAZ 388 cells = assay: Flow cytometry of surface molecule expression on LAZ 388 cells; type: cell-based, human
Procedure: (§1) Immunofluorescence Staining and Flow Cytometric Analysis of Cell Surface Molecules: Cells were resuspended at 1×10^6 /ml in PBS and then incubated for periods of 5 to 120 minutes at 37° C. with MET-ENK at doses of 0 to 10^-5 M. Incubations were terminated by transferring samples to an ice bath and then pelleting the cells by centrifugation at 1800 rpm for 5 minutes at 4° C.
(§2) Immunofluorescence staining was carried out in 4-ml tubes maintained in an ice water bath. […] Cells were subsequently fixed within a 2% solution of formalin and maintained in the dark at 10° C. until analyzed.
(§3) Flow cytometric analysis was performed using a FACS SCAN Flow Cytometer (Becton Dickinson, Mountain View, Calif.) equipped with a HP9000 Series computer and the Lysys System software analysis package. Data were collected as histograms depicting the fluorescence intensity for 5,000 to 10,000 cells per sample.
(§4) The non-binding IgG1 MOPC myeloma protein, anti-macrophage/monocyte specific CD14 (MO2; IgG2) and anti-T cell specific CD3 (OKT3; IgG2a) mAb were employed as nonreactive controls for measuring the autofluorescence of B cells.

NALM 6 cells [5] = details: cited from earlier work
LAZ 221 cells = assay: Flow cytometry of surface molecule expression on LAZ 221 cells; type: cell-based, human
Procedure: FIG. 4, Panels A-C. […] Data are presented as mean fluorescence intensities measured for 10,000 cells labeled with anti-CD9 or CD10 mAb. In Panel A, the NALM 6 Cells were incubated with MET-ENK (10^-7 M) for the times indicated. In Panel B, the LAZ 221 cells were incubated with MET-ENK at the doses indicated for 5 minutes at 37° C. […] The anti-CD9 and anti-CD10 mAb used for these experiments were of the IgG2a isotype.
as §1, §2, §3, §4

[6] = listed as methionine enkephalin
[7] = read-out: Kd, high affinity site
[8] = read-out: Kd, low affinity site
[9] = LAZ 388, 10^-7 M MET-ENK, untreated 1.0
[10] = LAZ 388, 10^-7 M MET-ENK, untreated 11.4
[11] = LAZ 221, 10^-7 M MET-ENK, untreated 1.0
[12] = LAZ 221, 10^-7 M MET-ENK, untreated 1.7

CSCC[C@H](NC(=O)[C@H](Cc1ccccc1)NC(=O)CNC(=O)CNC(=O)[C@@H](N)Cc1ccc(O)cc1)C(=O)O [MET-ENK, Tyr-Gly-Gly-Phe-Met]
Number of cells at 40 μm from origin (NALM 6 cells [1]; MET-ENK 0.01 nM): 238 | cell counts, migration to MET-ENK without naloxone (NALM 6 cells [1]; MET-ENK 1 nM): 2925 cell counts | Number of cells at 40 μm from origin (NALM 6 cells [1]; MET-ENK 1.0 nM): 407 | cell counts, migration to MET-ENK without naloxone (NALM 6 cells [1]; MET-ENK 100 nM): 3492 cell counts | Number of cells at 40 μm from origin (NALM 6 cells [1]; MET-ENK 100 nM): 637 | cell migration (cell counts) (NALM 6 cells [1]; NALM 6, peptide 100 nM, spontaneous locomotion 2190): 6952 cell counts | effect on migration of pre-B ALL cells (NALM 6 cells [1]; NALM 6 and LAZ 221 cells): potent stimulus for the migration of NALM 6 and LAZ 221 (pre-B ALL) but not LAZ 388 (EBV-transformed) cells | concentration at which effect on migration is detected (NALM 6 cells [1]; NALM 6 and LAZ 221 pre-B ALL cells): ≤ 10 pM | blastogenic responses to T and B cell lectins (PBMC; PBMC): augment the blastogenic responses of PBMC to both T and B cell lectins | IFN-γ production (PBMC; lectin stimulated PBMC): enhance IFN-γ production | cAMP (EBI1): 109.6 fmoles/cell × 10^3 | [Ca^2+ ]i response (NALM 6 cells [2]): rapid rise in the concentration of free intracellular Ca2+; also recorded: rapid rise in [Ca^2+ ]i | [Ca^2+ ]i response (NALM 6 cells [2]; listed as methionine-enkephalin): concentration dependent rise in [Ca^2+ ]i | human lymphocyte / T cell migration (human T cells): stimulate human lymphocyte migration | Bmax, low affinity sites (Jurkat cells): 3.3×10^4 sites/cell and 3.0×10^4 sites/cell | number of high affinity sites (Jurkat cells): 3.3 pM | number of low affinity sites (Jurkat cells): 101 pM | Bmax, low affinity sites (Jurkat cells; [6]): 3.0×10^4 sites/cell | Kd (Jurkat cells; [7]): 1.36 nM | Kd (Jurkat cells; [8]): 318 nM | Bmax, low affinity sites (NALM 6 cells [3]): 4.48×10^4 sites/cell | number of high affinity sites (NALM 6 cells [3]): 25.9 pM | number of low affinity sites (NALM 6 cells [3]): 149 pM | Bmax, low affinity sites (NALM 6 cells [3]; [6]): 4.48×10^4 sites/cell | Kd (NALM 6 cells [3]; [7]): 1.01 nM | Kd (NALM 6 cells [3]; [8]): 318 nM | cAMP production in NALM 6 cells (NALM 6 cells [4]): enhancement in the production of cAMP | cAMP production in NALM 6 cells (NALM 6 cells [4]; listed as Methionine-enkephalin): potentiates cAMP accumulation | humoral / antibody response (murine splenocytes): diminished | CD11a, CD18, CD54 expression, MET-ENK treated vs not (LAZ 388 cells; LAZ 388): equivalent for the MET-ENK-treated (+) and nontreated (-) cells | CD2 (LFA-2) fluorescence ratio (LAZ 388 cells; [9]): 0.9 | CD49b (VLA-α2 chain) fluorescence ratio (LAZ 388 cells; [9]): 1.0 | VLA-3 fluorescence ratio (LAZ 388 cells; [9]): 1.0 | VLA-5 fluorescence ratio (LAZ 388 cells; [9]): 1.0 | CD72 fluorescence ratio (LAZ 388 cells; LAZ 388, 10^-7 M MET-ENK, untreated 1.4): 1.7 | CD11b (Mac 1) fluorescence ratio (LAZ 388 cells; LAZ 388, 10^-7 M MET-ENK, untreated 1.5): 1.5 | CD20 fluorescence ratio (LAZ 388 cells; LAZ 388, 10^-7 M MET-ENK, untreated 1.7): 1.7 | VLA-1 fluorescence ratio (LAZ 388 cells; LAZ 388, 10^-7 M MET-ENK, untreated 1.8): 2.0 | CD19 fluorescence ratio (LAZ 388 cells; LAZ 388, 10^-7 M MET-ENK, untreated 8.6): 8.0 | CD22 fluorescence ratio (LAZ 388 cells; [10]): 11.1 | CD29 (VLA-β chain) fluorescence ratio (LAZ 388 cells; [10]): 11.2 | VLA-β; DE9N fluorescence ratio (LAZ 388 cells; LAZ 388, 10^-7 M MET-ENK, untreated 11.5): 11.1 | CD18 (Integrin β chain) fluorescence ratio (LAZ 388 cells; LAZ 388, 10^-7 M MET-ENK, untreated 11.9): 10.1 | CD11a (LF1α) fluorescence ratio (LAZ 388 cells; LAZ 388, 10^-7 M MET-ENK, untreated 12.4): 11.4 | CD54 (ICAM-1) fluorescence ratio (LAZ 388 cells; LAZ 388, 10^-7 M MET-ENK, untreated 18.7): 16.6 | CD58 (LFA-3) fluorescence ratio (LAZ 388 cells; LAZ 388, 10^-7 M MET-ENK, untreated 22.4): 21.8 | CD45 (T200) fluorescence ratio (LAZ 388 cells; LAZ 388, 10^-7 M MET-ENK, untreated 27.4): 27.3 | CD23 fluorescence ratio (LAZ 388 cells; LAZ 388, 10^-7 M MET-ENK, untreated 68.2): 70.7 | CD44 (homing receptor) fluorescence ratio (LAZ 388 cells; LAZ 388, 10^-7 M MET-ENK, untreated 79.0): 84.6 | lag phase before [Ca^2+ ]i rise (NALM 6 cells [5]): ~ 30 sec | surface expression of CD9 (LAZ 221 cells; LAZ 221): transient increase in their surface expression of CD9 but not CD10 molecules | CD2 (LFA-2) fluorescence ratio (LAZ 221 cells; LAZ 221, 10^-7 M MET-ENK, untreated 0.9): 1.0 | CD4 fluorescence ratio (LAZ 221 cells; [11]): 1.0 | CD11a (LF1α) fluorescence ratio (LAZ 221 cells; [11]): 1.1 | CD18 (Integrin β chain) fluorescence ratio (LAZ 221 cells; [11]): 1.1 | CD20 fluorescence ratio (LAZ 221 cells; [11]): 1.1 | CD11b (Mac 1) fluorescence ratio (LAZ 221 cells; LAZ 221, 10^-7 M MET-ENK, untreated 1.4): 1.5 | CD54 (ICAM-1) fluorescence ratio (LAZ 221 cells; LAZ 221, 10^-7 M MET-ENK, untreated 1.5): 1.5 | CD19 fluorescence ratio (LAZ 221 cells; [12]): 1.9 | CD29 (VLA-β chain) fluorescence ratio (LAZ 221 cells; [12]): 1.9 | CD58 (LFA-3) fluorescence ratio (LAZ 221 cells; [12]): 1.9 | VLA-β; DE9N fluorescence ratio (LAZ 221 cells; LAZ 221, 10^-7 M MET-ENK, untreated 5.8): 5.6 | lowest dose increasing CD9 expression (LAZ 221 cells; LAZ 221, 5 minutes at 37° C.): 10^-11 M

Source: patent US5753516A, “Screening method for ligands of the EBI-1 receptor” (priority 1995, dated 1998)
